This note sets out measurements from PubChem BioAssay AID328 (DTP/NCI, 2004).

For this assay, the system named is BDF1 mice, P388 leukemia ip, median survival T/C. Briefly: NCI In Vivo Anticancer Drug Screen. Data for tumor model P388 Leukemia (intraperitoneal) in B6D2F1 (BDF1) mice. The settings on record: endpoint: median survival time, higher = longer survival. In a few lines:
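Survival ratio, drug arm over vehicle arm, in mice with a transplanted tumour.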

[1] abbreviates: dose: 100.0 mg/kg/injection, schedule: Q01DX009 (ip), vehicle: saline with Tween-80.
Setting [2] is: dose: 200.0 mg/kg/injection, schedule: Q01DX009 (ip), vehicle: saline with Tween-80.
The mark [3] stands for this setting: dose: 400.0 mg/kg/injection, schedule: Q01DX009 (ip), vehicle: saline with Tween-80.
Where [4] appears, read: dose: 200.0 mg/kg/injection, schedule: Q04DX003 (ip), vehicle: Klucel (hydroxypropylcellulose) (HPC).
The mark [5] stands for this setting: dose: 100.0 mg/kg/injection, schedule: Q04DX003 (ip), vehicle: saline with Tween-80.
Setting [6] is: dose: 200.0 mg/kg/injection, schedule: Q04DX003 (ip), vehicle: saline with Tween-80.
The mark [7] stands for this setting: dose: 400.0 mg/kg/injection, schedule: Q04DX003 (ip), vehicle: saline with Tween-80.

Where “and” joins values, the source holds several entries; their conditions need not be identical. Identical values can stand only once. Inconclusive results and toxic doses are left out.

With `COc1cccc(NC(=O)CCC(=O)O)c1`, the T/C under setting [1] is 104 % of control, the T/C under setting [2] is 100 % of control and the T/C under setting [3] was 100 % of control.
For `CCC1CN1CC1CO1` (stereo unspecified), the T/C is, setting by setting: (dose: 8.3 mg/kg/injection, schedule: Q04DX003 (ip), vehicle: Klucel (hydroxypropylcellulose) (HPC)) 110 % of control; (dose: 12.0 mg/kg/injection, schedule: Q04DX003 (ip), vehicle: Klucel (hydroxypropylcellulose) (HPC)) 120 % of control; (dose: 29.0 mg/kg/injection, schedule: Q04DX003 (ip), vehicle: Klucel (hydroxypropylcellulose) (HPC)) 119 % of control; under setting [4], 204 % of control; (dose: 300.0 mg/kg/injection, schedule: Q04DX003 (ip), vehicle: Klucel (hydroxypropylcellulose) (HPC)) 190 % of control and 218 % of control.
Take `CCC12C=CCN3CCC4(c5cc(C(c6ccc(OC)cc6)c6cc7ccccc7[nH]6)c(OC)cc5N(C)C4C(O)(CO)C1O)C32` (stereo unspecified): the T/C runs as follows: (dose: 2.0 mg/kg/injection, schedule: Q01DX009 (ip), vehicle: saline) 104 % of control; (dose: 4.0 mg/kg/injection, schedule: Q01DX009 (ip), vehicle: saline) 98 % of control; (dose: 8.0 mg/kg/injection, schedule: Q01DX009 (ip), vehicle: saline) 95 % of control; (dose: 16.0 mg/kg/injection, schedule: Q01DX009 (ip), vehicle: saline) 98 % of control; (dose: 32.0 mg/kg/injection, schedule: Q01DX009 (ip), vehicle: saline) 104 % of control.
Take `CN=C1N[N+]2=C(C)CSCC2(C)S1` (stereo unspecified): the T/C runs as follows: (dose: 50.0 mg/kg/injection, schedule: Q01DX009 (ip), vehicle: saline) 100 % of control; (dose: 100.0 mg/kg/injection, schedule: Q01DX009 (ip), vehicle: saline) 100 % of control; (dose: 200.0 mg/kg/injection, schedule: Q01DX009 (ip), vehicle: saline) 97 % of control.
Take `COc1cc2c(cc1OC)[C@]13C[C@@H](OC)CC=C1CCN3CCC2`: the T/C (dose: 5.0 mg/kg/injection, schedule: Q01DX009 (ip), vehicle: alcohol) is 100 % of control; the T/C (dose: 10.0 mg/kg/injection, schedule: Q01DX009 (ip), vehicle: alcohol) was 95 % of control; the T/C (dose: 20.0 mg/kg/injection, schedule: Q01DX009 (ip), vehicle: alcohol) was 90 % of control; the T/C (dose: 40.0 mg/kg/injection, schedule: Q01DX009 (ip), vehicle: alcohol) is 90 % of control.
On to `COP(=O)(OC)C(OC(=O)C(C)(C)SC(C)=S)=C(C)C`, for which the T/C was 110 % of control under setting [5], 115 % of control under setting [6] and 115 % of control under setting [7].
`COC(=O)c1c(-c2ccccc2)c(-c2ccccc2)nn(-c2ccccc2)c1=O`: the T/C (dose: 400.0 mg/kg/injection, schedule: Q01DX001 (ip), vehicle: saline with Tween-80) is 87 % of control.
On to `CCCCC(CC)C(=O)[O][Sn]([CH2]CCC)([CH2]CCC)[O]C(=O)C(CC)CCCC` (stereo unspecified), for which the T/C (dose: 6.25 mg/kg/injection, schedule: Q04DX003 (ip), vehicle: acetone) was 91 % of control and the T/C (dose: 12.5 mg/kg/injection, schedule: Q04DX003 (ip), vehicle: acetone) was 95 % of control.
`CN(C)C(=S)/N=c1\ss/c(=N\C(=S)N(C)C)n1-c1ccccc1`: the T/C by setting is: (dose: 50.0 mg/kg/injection, schedule: Q01DX009 (ip), vehicle: saline with Tween-80) 100 % of control; under setting [1], 95 % of control; under setting [2], 95 % of control.
Consider `CC(C)NCc1ccccc1Sc1ccccc1`, for which the T/C (dose: 100.0 mg/kg/injection, schedule: Q01DX001 (ip), vehicle: saline with Tween-80) was 101 % of control.
As to `CN(Cc1ccc2nc(N)nc(N)c2c1)c1ccc(C(=O)NC(CCC(=O)O)C(=O)O)cc1` (stereo unspecified), the T/C is 172 % of control (dose: 0.03 mg/kg/injection, schedule: Q01DX009 (ip), vehicle: saline); 194 % of control (dose: 0.05 mg/kg/injection, schedule: Q01DX009 (ip), vehicle: saline); 200 % of control and 218 % of control (dose: 0.09 mg/kg/injection, schedule: Q01DX009 (ip), vehicle: saline); 86 % of control and 190 % of control and 209 % of control (dose: 0.15 mg/kg/injection, schedule: Q01DX009 (ip), vehicle: saline); 223 % of control (dose: 0.22 mg/kg/injection, schedule: Q01DX009 (ip), vehicle: saline); 110 % of control (dose: 0.31 mg/kg/injection, schedule: Q01DX009 (ip), vehicle: saline). For the same compound, the T/C was 218 % of control (dose: 1.25 mg/kg/injection, schedule: Q04DX003 (ip), vehicle: saline); 154 % of control (dose: 1.65 mg/kg/injection, schedule: Q04DX003 (ip), vehicle: saline); 268 % of control and 159 % of control and 181 % of control (dose: 2.5 mg/kg/injection, schedule: Q04DX003 (ip), vehicle: saline); 86 % of control and 222 % of control (dose: 3.75 mg/kg/injection, schedule: Q04DX003 (ip), vehicle: saline); 104 % of control (dose: 5.0 mg/kg/injection, schedule: Q04DX003 (ip), vehicle: saline); 116 % of control (dose: 5.7 micrograms/kg/injection, schedule: Q01DX009 (ip), vehicle: saline). The T/C (dose: 8.5 micrograms/kg/injection, schedule: Q01DX009 (ip), vehicle: saline) is 116 % of control; the T/C (dose: 13.0 micrograms/kg/injection, schedule: Q01DX009 (ip), vehicle: saline) was 262 % of control; the T/C (dose: 19.0 micrograms/kg/injection, schedule: Q01DX009 (ip), vehicle: saline) is 174 % of control.
On to `COC(=S)SCN(CSC(=S)OC)c1ccccc1Cl`, for which the T/C is, setting by setting: under setting [1], 118 % of control; under setting [3], 159 % of control; (dose: 600.0 mg/kg/injection, schedule: Q01DX009 (ip), vehicle: saline with Tween-80) 158 % of control.
`CC[NH-].CC[NH-].[I][Pt+2][I]`: the T/C is 190 % of control (dose: 3.12 mg/kg/injection, schedule: Q01DX009 (ip), vehicle: saline) and 185 % of control (dose: 6.25 mg/kg/injection, schedule: Q01DX009 (ip), vehicle: saline).
With `Clc1ccccc1CCCBr`, the T/C reads like this: under setting [5], 95 % of control; under setting [6], 100 % of control; under setting [7], 105 % of control.
Take `C#CCOCC1CN(c2ccccc2)C(=O)O1` (stereo unspecified): the T/C (dose: 100.0 mg/kg/injection, schedule: Q04DX003 (ip), vehicle: Klucel (hydroxypropylcellulose) (HPC)) is 95 % of control; the T/C under setting [4] is 100 % of control; the T/C (dose: 400.0 mg/kg/injection, schedule: Q04DX003 (ip), vehicle: Klucel (hydroxypropylcellulose) (HPC)) is 100 % of control.
Take `COc1cc(-c2ccc(Nc3ccccc3C(=O)O)c(OC)c2)ccc1Nc1ccccc1C(=O)O`: the T/C (dose: 50.0 mg/kg/injection, schedule: Q01DX010 (ip), vehicle: saline) was 166 % of control and the T/C (dose: 100.0 mg/kg/injection, schedule: Q01DX010 (ip), vehicle: saline) was 158 % of control.
In the case of `CC(=O)c1ccc2ccccc2c1OC(=O)c1ccncc1`, the T/C is, setting by setting: (dose: 12.5 mg/kg/injection, schedule: Q01DX009 (ip), vehicle: other) 99 % of control; (dose: 25.0 mg/kg/injection, schedule: Q01DX009 (ip), vehicle: other) 98 % of control; (dose: 50.0 mg/kg/injection, schedule: Q01DX009 (ip), vehicle: other) 107 % of control; (dose: 100.0 mg/kg/injection, schedule: Q01DX009 (ip), vehicle: other) 118 % of control; (dose: 200.0 mg/kg/injection, schedule: Q01DX009 (ip), vehicle: other) 107 % of control.
As to `COC(=O)c1c(OC)ccc2c1CC1C3Nc4ccccc4C3CCN1C2` (stereo unspecified), the T/C (dose: 50.0 mg/kg/injection, schedule: Q04DX003 (ip), vehicle: saline sonified) is 100 % of control; the T/C (dose: 100.0 mg/kg/injection, schedule: Q04DX003 (ip), vehicle: saline sonified) was 100 % of control; the T/C (dose: 200.0 mg/kg/injection, schedule: Q04DX003 (ip), vehicle: saline sonified) is 100 % of control.
